One compound from PMC11109052, “Metabolism characterization and toxicity of N-hydap, a marine candidate drug for lung cancer therapy by LC–MS method” (Natural Products and Bioprospecting, 2024) can be followed below.

One data set deals with Cyp3a11. Nature of the data set: Real-time PCR mRNA level after 7 days gavage: Cyp3a11 (human homolog CYP3A4). The class given is in vivo, mice. Further details: key to CYP3A4 mNA expression: ↑: up-regulation; ↓: down-regulation; –: no change. The protocol:
(§1) Mice were randomly divided into four groups, with eight animals in each group. The mice received oral pretreatment with N-hydap for 7 days at doses of 2, 5, and 10 mg/kg/day, which were considered as the low dose, medium dose, and high dose, respectively. Correspondingly, the control group received PBS. On the 8th day, the liver and kidneys were removed, and organs from eight mice per group were combined to prepare MLMs and MKMs using the detailed procedures above. Subsequently, we determined the activity of CYP and UGT enzymes by specific substrate metabolized with MLMs (0.5 mg/mL) and MKMs (0.2 mg/mL) in vitro. Specifically, the following selective substrates were used for the respective enzymes: PH (1 μM) for CYP1A2, DIC (1 μM) for CYP2C9, MP (90 μM) for CYP2C19, DM (1 μM) for CYP2D6, CZX (10 μM) for CYP2E1, Tes (1 μM) for CYP3A4, SN38 (1 μM) for UGT1A1, CACD (100 μM) for UGT1A3, Sero (20 μM) for UGT1A6, and Prop (1 μM) for UGT1A9. All substrates were dissolved in methanol or DMSO. The incubation procedure was carried out as mentioned above, and the reaction was terminated with VER (20 ng/mL) in ESI+ mode and CLP (200 ng/mL) in ESI− mode. In the ex vivo experiments, the activity of enzymes was measured by quantifying the production of various metabolites (nM/mg protein/min). The metabolites and their corresponding enzymes are as follows: APAP from PH, 4-OH-DIC from DIC, 4-OH-MP from MP, DXO from DM, 6-OH-CZX from CZX, 6-OH-Tes from Tes, SN38-G from SN38, CACD-G from CACD, Sero-G from Sero, Prop-G from Prop. The measurements were performed using multiple reaction monitoring (MRM) transitions, which are specific mass spectrometry transitions used for quantification. The optimized parameters for each metabolite, such as declustering potential and collision energy, were described in Supplementary Table 1. All experiments were conducted in triplicate, to ensure accuracy and reproducibility.
Total RNA from liver and kidney samples taken after 7 days of N-hydap gavage was extracted using the Animal Total RNA Isolation Kit (Foregene, Chengdu, Sichuan, China) following the manufacturer’s instructions. The concentrations of total RNA were determined by a nucleic acid concentration tester at 260/280 nm. A HiScript III RT SuperMix for qPCR (+ gDNA wiper) (Vazyme, Nanjing, Jiangsu, China) was used to measure the concentration of the synthesized cDNA. ChamQ SYBR qPCR Master Mix (Vazyme, Nanjing, Jiangsu, China) and detection were performed using a Light Cycler 480 II (ROCHE, Basel, Switzerland). Real-time PCR was used to analyze the relative mRNA levels of Cyp1a2, Cyp2b10, Cyp2c39, Cyp2d22, Cyp2e1, Cyp3a11, Ugt1a1, Ugt1a6a and Ugt1a9 (human homologs: CYP1A2, CYP2B6, CYP2C19, CYP2D6, CYP2E1, CYP3A4, UGT1A1, UGT1A6, and UGT1A9) in the liver, kidneys, and intestines. […]
A general note: In qPCR the cycle at which signal appears reflects the starting amount.

Another data set concerns Cyp2c39. Briefly: Real-time PCR mRNA level after 7 days gavage: Cyp2c39 (human homolog CYP2C19). Further details: key to CYP2C19 mNA expression: ↑: up-regulation; ↓: down-regulation; –: no change. The class given is in vivo, mice. The method, then:
as §1, with “The optimized parameters for each metabolite, such as declustering potential and collision energy, were described in Supplementary Table 1. All experiments were conducted in triplicate, to ensure accuracy and reproducibility.” left out
Total RNA from liver and kidney samples taken after 7 days of N-hydap gavage was extracted using the Animal Total RNA Isolation Kit (Foregene, Chengdu, Sichuan, China) following the manufacturer’s instructions. The concentrations of total RNA were determined by a nucleic acid concentration tester at 260/280 nm. […]

For another data set, the system named is UGT1A3. Nature of the data set: DME activity ex vivo in MLMs and MKMs: UGT1A3 (CDCA-G). Further details: species or system mice. The protocol: as §1, with “The incubation procedure was carried out as mentioned above, and the reaction was terminated with VER (20 ng/mL) in ESI+ mode and CLP (200 ng/mL) in ESI− mode.” left out, “The metabolites and their corresponding enzymes are as follows: APAP from PH, 4-OH-DIC from DIC, 4-OH-MP from MP, DXO from DM, 6-OH-CZX from CZX, 6-OH-Tes from Tes, SN38-G from SN38, CACD-G from CACD, Sero-G from Sero, Prop-G from Prop.” left out, “The optimized parameters for each metabolite, such as declustering potential and collision energy, were described in Supplementary Table 1. All experiments were conducted in triplicate, to ensure accuracy and reproducibility.” left out

Data set [1] in a line: Distribution studies in mice organs. Conditions: 30 min and 4 h. The class given is in vivo. The method, then: The heart, liver, spleen, lungs and kidneys were removed from mice after administering a dose of 5 mg/kg through oral gavage and 2 mg/kg through tail vein injection at 30 min and 240 min, followed by homogenization with normal saline. The resulting homogenate was centrifuged at 4 °C, 13,000 rpm for 20 min, and the supernatant was then mixed with the internal standard by vortexing. The mixtures were centrifuged at 4 °C, 13,000 rpm for 15 min. The resulting supernatant was then subjected to vacuum drying for 3–4 h. Lastly, the dried powder was reconstituted with a mixture of 50% methanol and water, and then centrifuged for LC–MS testing.

The target of the next data set is T1, UGT1A1 (Homo sapiens, UniProt P22309).
T1 construct: purchased Cypex (Scotland, UK)
Nature of the data set: Incubation with recombinant human UGT isoforms: UGT1A1. The class given is in vitro ADME. Conditions: recombinant UGT 2 μg/mL. The method, then: Incubation of N-hydap (2.5 μM) with eight recombinant human CYP enzymes (CYP1A2, CYP2B6, CYP2C9, CYP2C19, CYP2D6, CYP3A4, CYP4A11 and CYP4F2) at three enzyme concentrations (2, 4, and 20 μg/mL) was conducted following the same procedure as described above for microsomes. Subsequently, incubation with N-hydap (1, 2.5, and 6 μM) and twelve recombinant human UGT isoforms (UGT1A1, UGT1A3, UGT1A4, UGT1A6, UGT1A7, UGT1A8, UGT1A9, UGT1A10, UGT2B4, UGT2B7, UGT2B15 and UGT2B17) was performed, with the enzyme concentration used at 2 μg/mL. All reactions were carried out in triplicate.

A further data set concerns Ugt1a9. Briefly: DME activity ex vivo in MLMs and MKMs: UGT1A9 (Prop-G from Prop). Further details: species or system mice; key to UGT1A9 Enzymatic activity: ↑: up-regulation; ↓: down-regulation; –: no change. The protocol: as §1
Where [2] appears, read: mice, 2, 5, 10 mg/kg p.o. 7 days, liver and kidneys.

T1 sequence (P22309 26-533): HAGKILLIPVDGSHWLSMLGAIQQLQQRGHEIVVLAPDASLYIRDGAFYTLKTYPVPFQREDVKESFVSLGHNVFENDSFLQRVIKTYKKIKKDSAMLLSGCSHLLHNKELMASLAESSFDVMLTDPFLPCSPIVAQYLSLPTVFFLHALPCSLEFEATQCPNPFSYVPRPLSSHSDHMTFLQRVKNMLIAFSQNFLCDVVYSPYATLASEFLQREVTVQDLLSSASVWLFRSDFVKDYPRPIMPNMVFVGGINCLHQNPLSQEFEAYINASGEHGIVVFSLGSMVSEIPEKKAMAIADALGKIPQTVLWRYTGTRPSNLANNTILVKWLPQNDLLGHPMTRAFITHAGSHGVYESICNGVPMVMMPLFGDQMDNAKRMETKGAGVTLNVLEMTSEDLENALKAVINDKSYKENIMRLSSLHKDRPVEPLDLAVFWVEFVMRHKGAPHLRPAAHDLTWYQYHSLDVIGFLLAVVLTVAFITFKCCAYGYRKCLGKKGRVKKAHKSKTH

As to `CC1CCC2C(C=CC(C)C2C(=O)c2c(O)c(C3(O)CCC(O)C4OC43)cn(O)c2=O)C1` (centres unmarked) [N-hydap, N-Hydroxyapiosporamide], the “CYP3A4 mNA expression” value in the data set on Cyp3a11 (Kidney) is recorded as “↑”. For the same compound, the “CYP3A4 mNA expression” value in the data set with Cyp3a11 (Liver) is “↑”. Moreover, the “mRNA levels of Cyp3a11” value with Cyp3a11 (mice, 2, 5, 10 mg/kg p.o. 7 days, intestines) was “slight reduction”. In the data set with Cyp3a11 (setting [2]), the “increase of mRNA levels of Cyp3a11” value is on record as 78%-160%. Also, in the data set with Cyp2c39 (Kidney), the “CYP2C19 mNA expression” value is “↓”. Also, the “CYP2C19 mNA expression” value in the data set on Cyp2c39 (Liver) is recorded as “↓”. The “mRNA levels of Cyp2c39” value in the data set with Cyp2c39 (setting [2]) was “slight reduction”. In the data set on UGT1A3 (MLMs and MKMs, range stated jointly for APAP, SN38-G, 6-OH-Tes and CDCA-G), the “elevation of formation rate of CDCA-G” value is on record as 12%-331%. Moreover, in the data set with UGT1A3 (after 7 days of oral administration), the “catalytic activity of UGT1A3” value was “significantly increased”. For the same compound, in data set [1] (oral 5 mg/kg), the “total distribution ratio, heart” value was found to be 13.35%; the “total distribution ratio, kidneys” value is reported as 25.50%; the “total distribution ratio, liver” value is given as 11.45%; the “total distribution ratio, lungs” value was 26.26%. The “total distribution ratio, spleen” value in data set [1] (oral 5 mg/kg) was determined as 23.44%. Also, in data set [1] (tail vein injection 2 mg/kg), the “total distribution ratio, heart” value is given as 10.57%; the “total distribution ratio, kidneys” value amounted to 14.08%; the “total distribution ratio, liver” value is reported as 37.61%; the “total distribution ratio, lungs” value stood at 23.17%. The “total distribution ratio, spleen” value in data set [1] (tail vein injection 2 mg/kg) is reported as 14.57%. Also, the “contribution of UGT1A1 to formation of N-hydap-G” value at UGT1A1 is “secondary contributors”. Further, the “UGT1A9 Enzymatic activity” value in the data set on Ugt1a9 (Kidney) is “↑”. In addition, the “UGT1A9 Enzymatic activity” value with Ugt1a9 (Liver) was “↓”. For the same compound, in the data set on Ugt1a9 (liver microsomes of mice pretreated 7 days p.o.), the “reduction of formation rate of Prop-G vs control” value turned out to be 47%.
